The values below come from ChEMBL document CHEMBL3507680, “University of Dundee, Gates Library screen for HepG2 cell viability”.

Structures are written as SMILES.

The series in a line: Human HepG2 cell viability assay in 384 well format. The settings on record: HepG2 cells, read-out: Inhibition. The series is classed as toxicity, cell-based. Set-up: dose 125 nL, time 70.5 hour; cytotoxicity at 70.5 h: concentration not given beside the values.

As for `CCC(CC)c1cc(C(=O)N2CCN(CC(N)=O)CC2)on1`, the cytotoxicity at 70.5 h is -6.02%.
Regarding `CNS(=O)(=O)c1cc(C(=O)N2CCCCCC2CC(C)C)co1` (centres undefined), the cytotoxicity at 70.5 h was -3.95%.
`CN1CCOC(C(=O)Nc2nnc(Cc3ccc(F)cc3)[nH]2)C1` (centres undefined): the cytotoxicity at 70.5 h was -7.94%.
The value for `CCOC(C)C(=O)Nc1cc(S(=O)(=O)NC2CC2)ccc1F` (centres undefined) was 6.35%.
For `Cc1nc(CN(C)c2nccc(N(C)C)n2)cs1`, the cytotoxicity at 70.5 h was -0.0733%.
The value for `Cc1ccn(Cc2nc(CC(C)C)no2)c(=O)c1` was -6.72%; that for `Cc1nc(CSCCC(=O)Nc2cccc(N3CCNC3=O)c2)cs1` was -0.129%.
On to `O=C(NCc1ccnc(OCC(F)(F)F)c1)NCC1CCOC1` (centres undefined), for which the cytotoxicity at 70.5 h was -15.8%.
On to `Cc1cc(-n2c(C)cn(CN(C)Cc3ccccc3)c2=O)no1`, for which the cytotoxicity at 70.5 h is -5.85%.
With `COc1ccc(CN(C)Cn2cc(C)n(-c3cc(C)on3)c2=O)cc1`, the cytotoxicity at 70.5 h is -12.5%.
For `Cc1cc(CN(CCO)Cc2cc(Br)ccc2F)no1`, the cytotoxicity at 70.5 h was -17.4%.
The value for `N#Cc1c(CN2CCCC2Cn2cncn2)cn2ccccc12` (centres undefined) was -12.3%; that for `COCC(=O)NC(c1ccccc1)c1ccc2c(c1)CCCO2` (centres undefined) was -16.4%.
The value for `O=C(Cn1cnnn1)NC(c1ccccc1)c1ccc2c(c1)CCCO2` (centres undefined) was 24.4%; that for `Cc1ccc(C2CSCCN2C(=O)c2ccncc2)cc1` (centres undefined) was 0.0663%.
Regarding `CCOCCOC(C)C(=O)Nc1ccc2ccn(CC(=O)NC)c2c1` (centres undefined), the cytotoxicity at 70.5 h was -13.2%.
The value for `O=C(Nc1cccnc1)NC1(c2cccc(F)c2)CC1` was -14.7%.
The value for `CCc1ccccc1CNC(=O)NCc1cnn(C)c1` was -11.8%; that for `O=C(NCCO)NC(c1ccccc1)c1ccc2c(c1)CCCO2` (centres undefined) was -12.9%.
Turning to `CC1CS(=O)(=O)CCN1CCCc1ccc(Cl)cc1` (centres undefined), the cytotoxicity at 70.5 h was -6.15%.
The value for `O=C(CCCc1ccccn1)Nc1cccc(N2CCCNC2=O)c1` was -0.166%.
Turning to `COc1ccccc1C1(CNC(=O)NCc2noc(C)n2)CC1`, the cytotoxicity at 70.5 h is 26.4%.
`CS(=O)(=O)c1ccc(NC(=O)NC2(c3cccc(F)c3)CC2)cc1`: the cytotoxicity at 70.5 h is -7.54%.
For `Cc1ccc(C2CN(CCS(C)(=O)=O)CCO2)c(C)c1` (centres undefined), the cytotoxicity at 70.5 h was -12.5%.
In the case of `O=S(=O)(c1cncc(F)c1)N1CCC2(CCOC2)C1` (centres undefined), the cytotoxicity at 70.5 h is -14.3%.
Turning to `O=S(=O)(c1cncc(F)c1)N1CCC2(CCCCC2)C1`, the cytotoxicity at 70.5 h is -13%.
As to `Cc1nc(CNC(=O)NCC2(C)CCCc3ccccc32)no1` (centres undefined), the cytotoxicity at 70.5 h turned out to be 29.3%.
Take `CC(=O)Nc1ccc(SCC(O)COCc2ccc3c(c2)OCO3)cc1` (centres undefined): the cytotoxicity at 70.5 h is -4.91%.
For `CC1CS(=O)(=O)CCN1CCCc1ccc(C(F)(F)F)cc1` (centres undefined), the cytotoxicity at 70.5 h was -10.6%.
In the case of `Clc1ccc(C(CNCc2cccnc2)n2cccn2)cc1` (centres undefined), the cytotoxicity at 70.5 h is 24.3%.
`CCn1cc(CNCC(c2ccc(Cl)cc2)n2cccn2)cn1` (centres undefined): the cytotoxicity at 70.5 h is -14.8%.
The value for `Cc1cc(-n2c(C)cn(CN(C)CC3CC3)c2=O)no1` was -1.13%.
As for `COCCCN(Cc1ccncc1)c1ncc(C#N)cc1Cl`, the cytotoxicity at 70.5 h is -0.375%.
With `Cc1ccc(C2CSCCN2C(=O)c2ccccn2)cc1` (centres undefined), the cytotoxicity at 70.5 h is -13.2%.
As for `CCc1ccccc1CNC(=O)CCc1cnn(C)c1`, the cytotoxicity at 70.5 h is -8.72%.
On to `CC(C)N1C(=O)CN(CCCO)CC1(C)C`, for which the cytotoxicity at 70.5 h is -9.87%.
The value for `COCCC1(C(=O)NCCc2nncn2C2CC2)CCC1` was -13.5%.
Take `CC(=O)N1CCC(Oc2ccc(C#N)cc2)CC1`: the cytotoxicity at 70.5 h amounted to 9.28%.
On to `Cc1noc(CCNC(=O)c2ccc(Br)c(S(=O)(=O)N(C)C)c2)n1`, for which the cytotoxicity at 70.5 h was -4.79%.
For the molecule `Cc1occc1C(=O)NCC(=O)N1CCC(COc2ccccc2)CC1`, the cytotoxicity at 70.5 h is -2.93%.
For `CS(=O)(=O)N1CCC(C(=O)N2CCOc3ccccc32)CC1`, the cytotoxicity at 70.5 h is -5.71%.
Consider `CC1CCN(C(=O)C2CCN(S(C)(=O)=O)CC2)c2ccccc21` (centres undefined), for which the cytotoxicity at 70.5 h is -7.57%.
Turning to `Cc1nn(C)c(Cl)c1S(=O)(=O)N(CC(N)=O)CC(C)C`, the cytotoxicity at 70.5 h was -16.6%.
As to `Cc1nn(C)c(C)c1S(=O)(=O)N(CC(N)=O)CC(C)C`, the cytotoxicity at 70.5 h is -8.24%.
As to `NC(=O)C(Cc1ccccc1)NS(=O)(=O)Cc1ccccc1F` (centres undefined), the cytotoxicity at 70.5 h was -15%.
In the case of `Cc1ccc(NC(=O)N(C)C)c(C(=O)OCC(=O)NC2CCCC2)c1`, the cytotoxicity at 70.5 h was -0.892%.
For `Cc1ccc(NC(=O)N(C)C)c(C(=O)OCC(=O)NC(C)C(C)C)c1` (centres undefined), the cytotoxicity at 70.5 h is 26.9%.
On to `Cc1nc(-c2ccc(S(=O)(=O)N3CCSCC3)cc2)co1`, for which the cytotoxicity at 70.5 h was -5.93%.
Consider `CN(Cc1c(F)cccc1Cl)C(=O)c1cnn(CCN2CCOCC2)c1`, for which the cytotoxicity at 70.5 h is -12.6%.
The value for `COCc1nc(C(=O)NS(=O)(=O)c2ccc(F)c(F)c2)cs1` was -6.1%; that for `Cc1ccc(CN2CCOCC2)cc1NCc1ccsc1` was -13.9%.
Regarding `Cc1nc(-c2ccc(S(=O)(=O)N3CCC=C(F)C3)cc2)co1`, the cytotoxicity at 70.5 h is -9.72%.
For `COC(=O)CN(C(=O)c1ccc(Cl)cn1)c1cccc(F)c1`, the cytotoxicity at 70.5 h is -0.717%.
On to `CC(C)(C)OC(=O)NCCC(=O)N(CCC#N)Cc1ccco1`, for which the cytotoxicity at 70.5 h was -0.853%.
The value for `COC(=O)CN(C(=O)c1ccc(Cl)o1)c1cccc(F)c1` was -11.3%; that for `CCc1noc(CN(C)Cc2cc(Br)ccc2OC)n1` was -5.46%; that for `COCCC(=O)N(CCC#N)c1ccc2c(c1)OCCO2` was -0.557%.
With `NC(=O)c1cnn2c1NCC(CNCC1(c3ccccc3)CCC1)C2` (centres undefined), the cytotoxicity at 70.5 h stood at 10.4%.
The value for `N#Cc1ccc(CN2CCOCC2)cc1` was 2.27%; that for `CC(C)C(C)N(C)C(=O)COc1ccccc1C#N` (centres undefined) was 1.38%; that for `CC(Oc1cc(Cl)cc(Cl)c1)C(=O)NCCC(=O)N(C)C` (centres undefined) was -6.44%.
For `CC(CNC(=O)OC(C)(C)C)N(C)C(=O)COc1ccccc1C#N` (centres undefined), the cytotoxicity at 70.5 h was -12.1%.
As to `Cc1ncc2c(n1)CN(c1ncnc3[nH]ccc13)CC2`, the cytotoxicity at 70.5 h worked out at 1.91%.
The value for `Cc1ccc(N(CCC#N)C(=O)CCc2cccnc2)cc1C` was -5.18%; that for `Cc1nc(CCCNC(=O)Nc2cc(F)cc(F)c2)n[nH]1` was -11.9%; that for `Cc1nc(C)c(S(=O)(=O)NC(=O)c2cccs2)s1` was -4.64%.
Turning to `Cc1noc(C)c1CNC(=O)Nc1ccc(N2CCSCC2)cc1`, the cytotoxicity at 70.5 h was -9.93%.
Consider `CC(Oc1cc(Cl)cc(Cl)c1)C(=O)NCCOCC(N)=O` (centres undefined), for which the cytotoxicity at 70.5 h is 18%.
Turning to `CC(c1ccco1)N(C(=O)Cn1nc2n(c1=O)CCCCC2)C1CC1` (centres undefined), the cytotoxicity at 70.5 h came to 18%.
`Cc1ocnc1CNC(=O)Nc1ccc(N2CCOC(C)C2)cc1` (centres undefined): the cytotoxicity at 70.5 h is -17.7%.
The value for `CC(C)CC(CO)NS(=O)(=O)Cc1ccon1` (centres undefined) was -6.44%; that for `Cc1nc(CCCNC(=O)c2cc(F)ccc2O)n[nH]1` was -9.81%.
Consider `CCc1ncnc(N2CCOCC2C(N)=O)c1F` (centres undefined), for which the cytotoxicity at 70.5 h is -5.74%.
`CC(c1ccncc1)N(C)C(=O)NCCOc1ccc(C#N)cc1` (centres undefined): the cytotoxicity at 70.5 h is 16.9%.
